For one experiment, the target named is CDK1/Cyclin B1 (Homo sapiens (Human), UniProt P06493). As to the kind of experiment: CDK1/Cyclin B1 ADP-Glo Kinase Assay. Type of experiment: biochemical. To be noted: 80 uM ATP. The procedure, abridged: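 Luminescent ADP-Glo detection of ADP produced over 90 min at room temperature. Enzyme complex 4.917 nM, pre-exposed 30 min to inhibitor; ATP 80 µM (near Km 78.6 µM), substrate 0.75 µM, HEPES pH 7.5, 2% DMSO. Fractional velocity fitted to 4-parameter IC50 equation.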

Experiment [1] deals with CDK2/Cyclin E1 full length (Homo sapiens (Human), UniProt P24941). The experiment in a line: CDK2/Cyclin E1 Full Length ADP-Glo Kinase Assay. Type of experiment: biochemical. To be noted: 20 uM ATP, read-out: CDK2/ CyclinE1 IC50. The procedure, abridged:
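ADP-Glo luminescence read-out of ADP formed by 0.328 nM wild-type full-length CDK2/Cyclin E1, 90 min at room temperature with 0.75 uM substrate and 20 uM ATP (Km 64.78 uM), after 30 min enzyme–inhibitor pre-incubation; 50 mM HEPES pH 7.5, 2% DMSO. Four-parameter IC50 fit.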
A general note: In ADP-Glo the light output rises with the ADP produced.

The next experiment concerns the target CDK4/Cyclin D1 (Homo sapiens (Human), UniProt P11802). The experiment in a line: CDK4/Cyclin D1 Mobility Shift Assay (MSA). The class given is biochemical. To be noted: 0.2 mM ATP, read-out: CDK4/ CyclinD1 MSA IC50. In outline:
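Reaction: 2.5 nM enzyme, 0.2 mM ATP, 1.5 µM 5-FAM-Dyrktide, 10 mM MgCl2, 2 mM DTT, 2% DMSO, 50 mM HEPES pH 7.5. Inhibitor was preincubated 30 min at 22 °C, then the reaction ran 180 min before EDTA stop. Microfluidic separation of substrate and product gave % conversion, and IC50 came from a 4-parameter fit.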

The target of the next experiment is CDK6/Cyclin D3 (Homo sapiens (Human), UniProt Q00534). The experiment in a line: CDK6/Cyclin D3 ADP-Glo Kinase Assay. To be noted: 100 uM ATP, read-out: CDK6/ CyclinD3 IC50. The class given is biochemical. The procedure, abridged:
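Luminescent ADP-Glo read-out of ADP produced, used to fit IC50 (4-parameter equation on fractional velocity against inhibitor concentration). Kinase reaction: enzyme and inhibitor together 30 min, then ATP-containing substrate added for 90 min, all at room temperature.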

A further experiment has as its system MCF-7 cells. As to the kind of experiment: Cell Growth Inhibition, MCF-7 (CellTiterGlo, 6 days). Type of experiment: cell-based. To be noted: MCF-7, 6-day treatment, CellTiterGlo 2.0. The procedure, abridged:
(§1)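 Compounds were run in half-log series, usually 10–10,000 nM, with 500 cells/well of OVCAR-3 or MCF-7 in RPMI plus 10% FBS. After a 6-day culture at 37 °C, viability was read by CellTiterGlo luminescence. Inhibition relative to control was fitted (four-parameter, variable slope) for IC50.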

A further experiment has as its system OVCAR-3 cells. As to the kind of experiment: Cell Growth Inhibition, OVCAR-3 (CellTiterGlo, 6 days). The class given is cell-based. To be noted: OVCAR-3, 6-day treatment, CellTiterGlo 2.0. In outline:
as §1

Among the data in patent US20240092761A1, “QUINAZOLINE COMPOUNDS AND METHODS OF USE” (IAMBIC THERAPEUTICS, INC., priority 2022, published 2024) are IC50 values, retold here.

The structures appear in SMILES notation. Like-named read-outs stand apart in the source and are kept apart here.

Chain of CDK4/Cyclin D1 (P11802 whole entry): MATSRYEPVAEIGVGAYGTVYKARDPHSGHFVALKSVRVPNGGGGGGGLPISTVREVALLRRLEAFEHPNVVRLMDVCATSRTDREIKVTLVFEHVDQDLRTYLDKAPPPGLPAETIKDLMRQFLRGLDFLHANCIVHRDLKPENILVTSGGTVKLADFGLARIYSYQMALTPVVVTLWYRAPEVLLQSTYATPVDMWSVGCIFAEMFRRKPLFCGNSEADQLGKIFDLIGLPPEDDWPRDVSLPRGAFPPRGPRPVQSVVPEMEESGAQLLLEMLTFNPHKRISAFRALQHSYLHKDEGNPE
Chain of CDK4/Cyclin D1 (P24385 whole entry partner): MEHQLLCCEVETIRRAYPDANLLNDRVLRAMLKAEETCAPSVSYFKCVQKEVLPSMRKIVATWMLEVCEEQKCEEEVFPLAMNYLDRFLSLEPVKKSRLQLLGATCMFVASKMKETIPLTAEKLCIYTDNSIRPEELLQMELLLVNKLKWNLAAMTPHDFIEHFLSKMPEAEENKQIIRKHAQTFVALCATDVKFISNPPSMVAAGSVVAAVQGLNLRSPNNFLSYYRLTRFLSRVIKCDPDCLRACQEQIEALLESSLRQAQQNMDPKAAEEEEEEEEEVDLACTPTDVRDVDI
Chain of CDK6/Cyclin D3 (Q00534 whole entry): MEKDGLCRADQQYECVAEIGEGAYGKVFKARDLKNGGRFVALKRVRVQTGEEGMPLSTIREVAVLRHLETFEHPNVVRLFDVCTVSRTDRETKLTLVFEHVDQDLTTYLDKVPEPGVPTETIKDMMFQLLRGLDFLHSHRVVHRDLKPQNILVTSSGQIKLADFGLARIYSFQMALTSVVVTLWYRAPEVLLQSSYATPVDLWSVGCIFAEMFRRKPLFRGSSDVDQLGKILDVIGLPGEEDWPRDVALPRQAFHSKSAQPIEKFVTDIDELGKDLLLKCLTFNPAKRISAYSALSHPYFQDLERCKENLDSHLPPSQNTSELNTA
Chain of CDK6/Cyclin D3 (P30281 whole entry partner): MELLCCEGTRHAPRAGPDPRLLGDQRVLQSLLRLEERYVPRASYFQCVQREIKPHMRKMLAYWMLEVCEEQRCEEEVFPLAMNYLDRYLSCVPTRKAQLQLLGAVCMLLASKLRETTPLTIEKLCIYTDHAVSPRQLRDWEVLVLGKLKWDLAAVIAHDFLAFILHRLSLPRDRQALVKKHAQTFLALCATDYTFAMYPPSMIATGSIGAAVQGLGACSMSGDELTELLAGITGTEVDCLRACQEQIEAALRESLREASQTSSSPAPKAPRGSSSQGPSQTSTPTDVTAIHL
Chain of CDK1/Cyclin B1 (P06493 whole entry): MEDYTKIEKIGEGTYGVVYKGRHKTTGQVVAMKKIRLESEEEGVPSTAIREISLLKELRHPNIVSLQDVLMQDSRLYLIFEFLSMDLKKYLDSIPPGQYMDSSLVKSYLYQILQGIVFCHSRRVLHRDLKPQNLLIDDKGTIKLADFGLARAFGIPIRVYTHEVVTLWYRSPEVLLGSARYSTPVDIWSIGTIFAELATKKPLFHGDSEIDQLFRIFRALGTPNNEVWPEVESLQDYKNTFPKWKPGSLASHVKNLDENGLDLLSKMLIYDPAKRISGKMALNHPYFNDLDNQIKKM
Chain of CDK1/Cyclin B1 (P14635 whole entry partner): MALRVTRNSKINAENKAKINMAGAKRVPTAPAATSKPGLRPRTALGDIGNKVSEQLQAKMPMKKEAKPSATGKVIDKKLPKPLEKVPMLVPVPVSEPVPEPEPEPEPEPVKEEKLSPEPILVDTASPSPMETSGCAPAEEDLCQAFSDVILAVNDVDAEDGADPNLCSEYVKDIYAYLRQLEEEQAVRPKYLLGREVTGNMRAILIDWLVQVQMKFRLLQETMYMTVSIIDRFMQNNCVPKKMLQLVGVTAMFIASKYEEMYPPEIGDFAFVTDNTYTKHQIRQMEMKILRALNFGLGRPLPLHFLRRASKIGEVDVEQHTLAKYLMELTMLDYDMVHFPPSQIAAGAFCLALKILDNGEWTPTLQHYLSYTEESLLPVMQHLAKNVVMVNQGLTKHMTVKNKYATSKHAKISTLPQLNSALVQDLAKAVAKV

As for `CC(=O)N1CCC2(CCN(c3cccc4cnc(Nc5ccc(N6CCN(C)CC6)cc5)nc34)C2)C1` (stereo not drawn) [Example 33, 1-(7-(2-((4-(4-methylpiperazin-1-yl)phenyl)amino)quinazolin-8-yl)-2,7-diazaspiro[4.4]nonan-2-yl)ethan-1-one], the IC50 against CDK1/Cyclin B1 was more than 2000 nM; in experiment [1] (given as number), 5170 nM; on CDK4/Cyclin D1, less than 200 nM; on CDK6/Cyclin D3, less than 200 nM; with MCF-7 cells (Homo sapiens, MCF7, 144 h), more than 2000 nM; in the experiment with OVCAR-3 cells (Homo sapiens, 144 h), more than 2000 nM.

In the case of `CC(=O)N1CCC2(CCN(c3cc(C(F)F)cc4cnc(Nc5ccc(N6CCN(C)CC6)cc5)nc34)C2)C1` (stereo not drawn) [Example 51, 1-(7-(6-(difluoromethyl)-2-((4-(4-methylpiperazin-1-yl)phenyl)amino)quinazolin-8-yl)-2,7-diazaspiro[4.4]nonan-2-yl)ethan-1-one], the IC50 at CDK1/Cyclin B1 was more than 2000 nM; in experiment [1], 500 to 2000 nM; on CDK4/Cyclin D1, less than 200 nM; on CDK6/Cyclin D3, less than 200 nM; in the experiment on MCF-7 cells (Homo sapiens, MCF7, 144 h), 500 to 2000 nM; with OVCAR-3 cells (Homo sapiens, 144 h) it was 500 to 2000 nM.

Regarding `COCCN1CC2(C1)CN(c1cccc3cnc(NC4CCN(S(C)(=O)=O)CC4)nc13)C2` [Example 36, 8-(6-(2-methoxyethyl)-2,6-diazaspiro[3.3]heptan-2-yl)-N-(1-(methylsulfonyl)piperidin-4-yl)quinazolin-2-amine], the IC50 is 500 to 2000 nM against CDK1/Cyclin B1; less than 200 nM in experiment [1]; less than 200 nM at CDK4/Cyclin D1; 500 to 2000 nM at CDK6/Cyclin D3; more than 2000 nM in the experiment with MCF-7 cells (Homo sapiens, MCF7, 144 h); more than 2000 nM in the experiment on OVCAR-3 cells (Homo sapiens, 144 h).

For `CCN1CC2(C1)CN(c1ccc(Nc3ncc4cccc(N5CCC6(CCN(C(C)=O)C6)C5)c4n3)nc1)C2` (stereo not drawn) [Example 46, 1-(7-(2-((5-(6-ethyl-2,6-diazaspiro[3.3]heptan-2-yl)pyridin-2-yl)amino)quinazolin-8-yl)-2,7-diazaspiro[4.4]nonan-2-yl)ethan-1-one], the IC50 against CDK1/Cyclin B1 was more than 2000 nM; in experiment [1], more than 2000 nM; on CDK4/Cyclin D1 it was less than 200 nM; at CDK6/Cyclin D3, 200 to 500 nM; in the experiment with MCF-7 cells (Homo sapiens, MCF7, 144 h), 500 to 2000 nM; in the experiment on OVCAR-3 cells (Homo sapiens, 144 h), more than 2000 nM.

Turning to `CC(=O)N1CCC2(CCN(c3cc(C(F)F)cc4cnc(NC5CCN(S(C)(=O)=O)CC5)nc34)C2)C1` (stereo not drawn) [Example 50, 1-(7-(6-(difluoromethyl)-2-((1-(methylsulfonyl)piperidin-4-yl)amino)quinazolin-8-yl)-2,7-diazaspiro[4.4]nonan-2-yl)ethan-1-one], the IC50 against CDK1/Cyclin B1 was 200 to 500 nM; in experiment [1] it was less than 200 nM; at CDK4/Cyclin D1 it was less than 200 nM; at CDK6/Cyclin D3, less than 200 nM; with MCF-7 cells (Homo sapiens, MCF7, 144 h), 500 to 2000 nM; in the experiment on OVCAR-3 cells (Homo sapiens, 144 h), more than 2000 nM.

With `CS(=O)(=O)N1CCC(Nc2ncc3cccc(N4CC(CC#N)C4)c3n2)CC1` [Example 14, 2-(1-(2-((1-(methylsulfonyl)piperidin-4-yl)amino)quinazolin-8-yl)azetidin-3-yl)acetonitrile], the IC50 on CDK1/Cyclin B1 is 200 to 500 nM; in experiment [1] it was less than 200 nM; at CDK4/Cyclin D1, less than 200 nM; at CDK6/Cyclin D3, less than 200 nM; with MCF-7 cells (Homo sapiens, MCF7, 144 h), more than 2000 nM; in the experiment with OVCAR-3 cells (Homo sapiens, 144 h), more than 2000 nM.

For the compound `CS(=O)(=O)N1CCC(Nc2ncc3cccc(N4CCC4CO)c3n2)CC1` (stereo not drawn) [Example 10, (1-(2-((1-(methylsulfonyl)piperidin-4-yl)amino)quinazolin-8-yl)azetidin-2-yl)methanol], the IC50 was 200 to 500 nM against CDK1/Cyclin B1; less than 200 nM in experiment [1]; less than 200 nM at CDK4/Cyclin D1; less than 200 nM on CDK6/Cyclin D3; more than 2000 nM in the experiment with MCF-7 cells (Homo sapiens, MCF7, 144 h); more than 2000 nM with OVCAR-3 cells (Homo sapiens, 144 h).

For `CN1C[C@@H]2[C@H](C1)[C@H]2Nc1ncc2cc(C(F)F)cc(N3CCC4(C3)CS(=O)(=O)C4)c2n1` [Example 54, 6-(6-(difluoromethyl)-2-(((1R,5S,6s)-3-methyl-3-azabicyclo[3.1.0]hexan-6-yl)amino)quinazolin-8-yl)-2-thia-6-azaspiro[3.4]octane 2,2-dioxide], the IC50 against CDK1/Cyclin B1 is more than 2000 nM; in experiment [1] it was more than 2000 nM; at CDK4/Cyclin D1, less than 200 nM; on CDK6/Cyclin D3, 200 to 500 nM; in the experiment on MCF-7 cells, more than 2000 nM; with OVCAR-3 cells it was more than 2000 nM.

As for `CS(=O)(=O)N1CCC(Nc2ncc3cccc(C4CCCC4)c3n2)CC1` [Example 1, 8-cyclopentyl-N-(1-(methylsulfonyl)piperidin-4-yl)quinazolin-2-amine], the IC50 at CDK1/Cyclin B1 was less than 200 nM; in experiment [1], less than 200 nM; at CDK4/Cyclin D1 it was less than 200 nM; at CDK6/Cyclin D3, less than 200 nM; in the experiment on MCF-7 cells (Homo sapiens, MCF7, 144 h), 200 to 500 nM; in the experiment with OVCAR-3 cells (Homo sapiens, 144 h), 500 to 2000 nM.

With `CS(=O)(=O)N1CCC(Nc2ncc3cccc(N4CCC(C#N)(C5CC5)C4)c3n2)CC1` (stereo not drawn) [Example 27, 3-cyclopropyl-1-(2-((1-(methylsulfonyl)piperidin-4-yl)amino)quinazolin-8-yl)pyrrolidine-3-carbonitrile], the IC50 against CDK1/Cyclin B1 was 500 to 2000 nM; in experiment [1], less than 200 nM; on CDK4/Cyclin D1, less than 200 nM; on CDK6/Cyclin D3 it was less than 200 nM; in the experiment with MCF-7 cells (Homo sapiens, MCF7, 144 h), more than 2000 nM; in the experiment with OVCAR-3 cells (Homo sapiens, 144 h), more than 2000 nM.

Consider `CN1CC2(CCC1=O)CCN(c1cccc3cnc(NC4CCN(S(C)(=O)=O)CC4)nc13)C2` (stereo not drawn) [Example 55, 7-methyl-2-(2-((1-(methylsulfonyl)piperidin-4-yl)amino)quinazolin-8-yl)-2,7-diazaspiro[4.5]decan-8-one], for which the IC50 at CDK1/Cyclin B1 was more than 2000 nM; in experiment [1], 500 to 2000 nM; on CDK4/Cyclin D1, 200 to 500 nM; on CDK6/Cyclin D3 it was 500 to 2000 nM; in the experiment with MCF-7 cells (Homo sapiens, MCF7, 144 h), more than 2000 nM; with OVCAR-3 cells (Homo sapiens, 144 h), more than 2000 nM.
